Experimental data: PubChem BioAssay AID743395 (Broad Institute, 2014)

Test system: HepG2 viability, CellTiter-Glo ATP luminescence, 72 h
Assay: viability loss in human hepatoma cells – cell-based, CellTiter-Glo luminescence, cherry-pick, set 2, cytotoxicity control, dose response (AID 743395)

Row | Compound | AC35
1 | C[C@H]1CN([C@@H](C)CO)S(=O)(=O)c2ccc(C#Cc3ccc(F)cc3)cc2O[C@H]1CN(C)C(=O)NC1CCCCC1 | 11.9 µM
2 | CC(C)Nc1ccc(Nc2ccnc3cc4ccccc4cc23)cc1 | 2.44 µM
3 | O=C(CCCl)Nc1nc2c(s1)CCc1ccccc1-2 | 20.6 µM
4 | C[C@@H]1CN([C@@H](C)CO)C(=O)c2cc(C#CCN(C)C)cnc2O[C@H]1CN(C)Cc1ccc(-c2ccccc2)cc1 | 11.5 µM
5 | COc1ccc2[nH]c(C(=O)N/N=C/c3ccc(O)cc3O)cc2c1 | 3.37 µM
6 | COc1cccc2c1C(=O)c1c(O)c3c(c(O)c1C2=O)CC(O)(C(=O)CO)CC3OC1CC(N(C)C)C(O)C(C)O1 (configuration not stated) | 0.0659 µM
7 | O=c1c2ccccc2oc2cc(-c3ccc4[nH]ccc4c3)ccc12 | 4.72 µM
8 | O=C(CCCN1CCC(O)(c2cccc(C(F)(F)F)c2)CC1)c1ccc(F)cc1 | 22.2 µM
9 | C[C@@H]1CCCCO[C@H](CN(C)Cc2ccc(Cl)c(Cl)c2)[C@@H](C)CN([C@@H](C)CO)C(=O)c2cc(NS(=O)(=O)c3ccc(Cl)cc3)ccc2O1 | 10.6 µM
10 | COC(=O)C1=CN(c2ccc(OC)cc2OC)C(N)=C(C#N)C1c1ccccc1F (configuration not stated) | 6.17 µM
11 | COc1ccc(C2=Nn3c(nnc3-c3ccccc3OC)SC2)cc1OC1CCOC1 (configuration not stated) | 7.54 µM
12 | COc1ccc(NC(=O)C2(C)Cc3c(-c4cccc(NC(C)=O)c4)ccnc3O2)cc1 (configuration not stated) | 4.15 µM
13 | Cc1ccc(-c2nn(-c3ccccc3)cc2C(=O)N2CCN(c3ccccn3)CC2)cc1 | 12.3 µM
14 | CCCCN1C(=O)CC(C(=O)OCC)=C1C | 22 µM
15 | O=C1C=CC(O)(c2cc(=O)c3c(O)cc(O)cc3o2)C=C1 | 8.15 µM
16 | O=[N+]([O-])c1ccc(Sc2cccc[n+]2[O-])c2nonc12 | 5.72 µM
17 | CN(C)CCNC(=O)c1ccc(Cl)c2cc3ccccc3nc12 | 2.59 µM
18 | COc1cc(Nc2c3c(nc4ccccc24)CCC3)cc(OC)c1OC | 7.54 µM
19 | COc1ccc(S(=O)(=O)NCc2ccccn2)cc1NC(=O)c1ccccc1F | 18.5 µM
20 | Cc1ccc(C)c(CSc2nc3[nH]ncc3c(=O)[nH]2)c1 | 5.46 µM
21 | Cc1ccc2[nH]c(-c3ccccc3)cc(=O)c2c1 | 5.6 µM
22 | COc1cccc(/C=N/Nc2ncnc(Cl)c2N)c1O | 2.15 µM
23 | Nc1ccn(C2OC(CO)C(O)C2O)c(=O)n1 (configuration not stated) | 6.2 µM
24 | Cc1ccc2cc(CN(CC3CCCO3)C(=S)Nc3ccccc3)c(=O)[nH]c2c1C (configuration not stated) | 14.7 µM
25 | C#Cc1cc(N2CCN(C(=O)c3ccoc3)CC2)n2nc(-c3cccc(Cl)c3)cc2n1 | 7.94 µM
26 | Cc1ccc(-n2nnnc2SCC(=O)NC(C(=O)O)(c2ccccc2)c2ccccc2)cc1C | 15 µM

Row | Compound | AC35
27 | CN(C)CCNc1ccc2ncn3c4ccc(O)cc4c(=O)c1c23 | 2.3 µM
28 | COc1cccc(-c2cnc3c(NC(C)=O)cc(-c4cc(F)ccc4OC)cn23)c1 | 12.5 µM
29 | COc1ccc(OC)c(Nc2nc(-c3sc(NC(=O)C(C)(C)C)nc3C)cs2)c1 | 9.87 µM
30 | O=C1CN(S(=O)(=O)Cc2ccccc2)C[C@@H]2[C@@H](c3ccc(C#Cc4cccc(F)c4)cc3)[C@@H](CO)N12 | 7.38 µM
31 | Cc1nc(N)[nH]c(=O)c1CCCNS(=O)(=O)c1ccc([N+](=O)[O-])cc1 | 17.1 µM
32 | CC(=O)Nc1ccc(Nc2c3ccccc3nc3ccccc23)cc1 | 5.33 µM
33 | CC(=NNC(=S)Nc1ccc(C)cc1)c1ccccn1 | 0.123 µM
34 | COc1ccc2c3c([nH]c2c1)[C@@H](CO)N(C(=O)C1CCOCC1)CC31CCN(Cc2cccc(F)c2)CC1 | 1.04 µM
35 | COc1ccccc1N1CCN(C(=O)c2ccc(-c3ccc(Cl)cc3)o2)CC1 | 3.02 µM
36 | CCc1ccc(N2CC(C(=O)Nc3ccccc3N3CCCC3)CC2=O)cc1 (configuration not stated) | 10.8 µM
37 | CCN(c1cccc(C)c1)S(=O)(=O)c1ccc(-c2cc(C)no2)s1 | 8.73 µM
38 | COc1ccc2c3c([nH]c2c1)[C@H](CO)N(C(=O)C1CCOCC1)CC31CCN(Cc2cccc(F)c2)CC1 | 2.74 µM
39 | COC1C(C)OC(OC2CC(C)(O)Cc3cc4c(c(O)c32)C(=O)c2c(O)cc3c(c2C4=O)OC2OC3(C)C(O)C(N(C)C)C2O)C(OC)C1(C)OC (configuration not stated) | 5.03 µM
40 | C=C1C(=O)O[C@@H]2[C@H]1[C@@H](OC(=O)/C(C)=C/C)C/C(C)=C\C(=O)/C=C(\C)[C@@H]2O | 8.97 µM
41 | CC(C)(C)c1cc(C(=O)NN)n(Cc2ccc(Cl)cc2Cl)n1 | 18.7 µM
42 | Oc1cccc(/C=N/Nc2ccc(Cl)nn2)c1O | 7.7 µM
43 | NCC(=O)NNC(=O)OCC1c2ccccc2-c2ccccc21 | 12.7 µM
44 | O=C(N/N=C/c1cc2c3c(c1O)CCCN3CCC2)c1ccccc1O | 0.751 µM
45 | COc1ccc2sc3cccc(NCCN(C)C)c3c(=O)c2c1 | 10.4 µM
46 | O=C1CC(c2ccccc2)CC2=C1C=Nc1ccccc1N2 (configuration not stated) | 18.3 µM
47 | COc1ccc(NC(=O)c2nc(C)c(C3(C)CC(c4cccnc4)=NO3)s2)cc1 (configuration not stated) | 13.9 µM
48 | COC(=O)c1ccc(S(=O)(=O)N2CCc3ccccc32)cc1 | 16.1 µM
49 | O=C1CN(S(=O)(=O)Cc2ccccc2)C[C@@H]2[C@@H](c3ccc(C#Cc4cccc(F)c4)cc3)[C@H](CO)N12 | 14.1 µM
50 | O=c1ccc2[n+]([O-])c3ccc(O)cc3oc-2c1 | 13.2 µM
51 | Cc1ccc(-c2ccc3c(c2)O[C@@H](CN(C)Cc2ccccn2)[C@H](C)CN([C@H](C)CO)S3(=O)=O)cc1 | 15.3 µM
52 | COc1cccc(C(=O)Nc2sc3c(c2C#N)CCN(C(C)=O)C3)c1 | 11.6 µM
